Measured values published in article PMC4000412, “Novel LHRH-receptor-targeted cytolytic peptide, EP-100: first-in-human phase I study in patients with advanced LHRH-receptor-expressing solid tumors” (Cancer Chemotherapy and Pharmacology, 2014).
Entries after “also recorded” stand apart in the source; their conditions may differ. Peptide text beside a SMILES is read from it.

Experiments:
[1] = Phase I dose-escalation safety: MTD, DLT, adverse events (NCI CTCAE 3.0); format: in vivo, human
Method: An open-label dose-escalation study was conducted at three centers after review and approval by each centers’ Institutional Review Board. Patients’ written informed consent was provided prior to study enrollment. The primary objectives of the study were to determine the maximum-tolerated dose (MTD) of EP-100 by intravenous (IV) infusion and to describe any dose limiting toxicities (DLT), which would inform the recommended phase 2 dose (RP2D) of EP-100 for future phase 2 protocols. Secondary objectives included: (a) to profile the PK and PD of EP-100, (b) to assess any drug immunogenicity by antidrug antibodies (ADA) which may react with endogenous LHRH, (c) to monitor biomarkers of pharmacologic activity of EP-100 and (d) to assess antitumor activity of EP-100 by radiographic assessments.
Cohorts of three patients were enrolled in a 3 + 3 dose-escalation design. […] A conservative first-in-human starting dose of 0.6 mg/m^2 was chosen, based on the repeat-dose toxicity studies in dogs (which appeared to be the most sensitive species). The initial dose schedule of one 30 min infusion weekly was predicted from animal PK profiles. Dosing frequency and infusion time were increased in subsequent cohorts by two protocol amendments. To increase the cumulative dose-exposure to EP-100, infusions were increased to twice weekly after conducting safety assessments in the first seven cohorts (n = 21 patients, at dose levels 0.6–7.8 mg/m^2). Twice weekly infusions effectively doubled the EP-100 delivered in all patients after cohort 7. The infusion time for the twice weekly doses also was increased from 30 to 60 min beginning with one patient in cohort 8 (dose level 11.7 mg/m^2), which decreased the intensity of infusion reactions (described below).
The absence of grade 2 drug-related toxicities in lower dose cohorts allowed 100 % dose acceleration. In the event of grade 2 or higher non-DLT in one or more patients, dose was escalated by 50 %. Dose escalation was limited to 50 % for any grade 1 or 2 drug-related dermatologic reactions unlikely to be allergic reaction or histamine-release syndromes and to 25 % for any grade 3 or 4 drug-related infusion reaction. With occurrence of the first DLT, the cohort was expanded to three additional patients. If one or more of the three additional patients at that dose level experienced DLT (total of two or more patients with DLT), MTD was reached. MTD was defined as the dose level below which two out of three to six patients experienced a DLT during the first cycle or during 1 complete cycle (28 days).
All adverse events (AE) were graded and reported according to National Cancer Institute Common Terminology Criteria for Adverse Events version 3.0 (NCI CTCAE 3.0). DLT were recorded during Cycle 1 if patients had any of the following: grade 4 neutropenia lasting 5 or more days, grade 3/4 neutropenia with fever and/or infection, grade 4 thrombocytopenia or grade 3 thrombocytopenia with bleeding, grade 3 or 4 allergic reaction, grade 3 or 4 drug-related non-hematologic toxicity (not including grade 3 nausea/vomiting or diarrhea with sub-optimal prophylactic and curative treatment) or a dose delay of more than 2 weeks due to treatment-related AE or laboratory abnormalities. Any grade 3 AE not judged to be clinically significant (e.g., alopecia or drug-related fever) were not considered DLT.

[2] = test system: pituitary gonadotropes (LHRH receptors); experiment: Pharmacodynamics: serum FSH, LH and other pituitary hormones in patients; format: in vivo, human
Method: FSH and LH levels as well as testosterone in men and estradiol levels in women were obtained on Days 1, 8, 15 and 22 within 24 h prior to dosing. Testosterone and estradiol levels were measured on Day 1 only after Cycle 1 and at off study assessment. Blood was collected for circulating tumor cells (CTC) prior to dosing on Day 1 of the first cycle. Patients with positive CTC at baseline also had blood collected for CTC analysis prior to dosing on Day 1 of each subsequent cycle. Additional studies included plasma cortisol, adrenocorticotropin (ACTH), thyroxine (T4) and thyroid-stimulating hormone (TSH) and blood for tumor specific biomarker analysis (at investigator’s discretion), all obtained prior to Day 1 dosing with each cycle and at off study assessment. Samples for antidrug antibodies (ADA) were collected on Day 1 of Cycle 1 and then on Day 1 of every odd cycle.

[3] = test system: LHRH-receptor-positive human ovarian cancer cell line (OVCAR-3); set-up: method as in earlier work; conditions: mice implanted with OVCAR-3, three weekly doses; cited from earlier work
[4] = selected toxicities, all cycles, N = 37

## CC(C)C[C@H](NC(=O)CNC(=O)[C@H](Cc1ccc(O)cc1)NC(=O)[C@H](CO)NC(=O)[C@H](Cc1c[nH]c2ccccc12)NC(=O)[C@H](Cc1c[nH]cn1)NC(=O)[C@@H]1CCC(=O)N1)C(=O)N[C@@H](CCCNC(=N)N)C(=O)N1CCC[C@H]1C(=O)NCC(=O)N[C@@H](CCCCN)C(=O)N[C@@H](Cc1ccccc1)C(=O)N[C@@H](C)C(=O)N[C@@H](CCCCN)C(=O)N[C@@H](Cc1ccccc1)C(=O)N[C@@H](C)C(=O)N[C@@H](CCCCN)C(=O)N[C@@H](CCCCN)C(=O)N[C@@H](Cc1ccccc1)C(=O)N[C@@H](C)C(=O)N[C@@H](CCCCN)C(=O)N[C@@H](Cc1ccccc1)C(=O)N[C@@H](C)C(=O)N[C@@H](CCCCN)C(=O)N[C@@H](CCCCN)C(=O)N[C@@H](Cc1ccccc1)C(=O)N[C@@H](C)C(=O)N[C@@H](CCCCN)C(=O)O [EP-100] (HELM PEPTIDE1{[Glp].H.W.S.Y.G.L.R.P.G.K.F.A.K.F.A.K.K.F.A.K.F.A.K.K.F.A.K}$$$$V2.0; C-terminus assumed)
[1]; 0.6–1.7 mg/m^2 at dose concentrations of 0.01–0.03 mg/mL
  IRDRs in the four lowest dose cohorts: No IRDRs
[1]; all 37 patients, all dose levels
  toxicities / AE of grade 3 or higher: No toxicities ≥grade 3; also recorded: no grade 3 or 4 AE
[1]; all dose levels
  IRDRs (infusion-related dermatologic reactions) reported: 10 of 37
[1]; dosing 1.35 mg/m^2 qw
  SAE Disease progression, No. of patients (%): 1 (2.7) No. of patients (%)
  SAE Disease progression, Outcome: Death
  SAE Disease progression, Relationship to EP-100: Unrelated
  SAE Gastrointestinal hemorrhage, No. of patients (%): 1 (2.7) No. of patients (%)
  SAE Gastrointestinal hemorrhage, Outcome: Resolved
  SAE Gastrointestinal hemorrhage, Relationship to EP-100: Unlikely related
  SAE Peripheral edema, No. of patients (%): 1 (2.7) No. of patients (%)
  SAE Peripheral edema, Outcome: Resolved with sequelae
  SAE Peripheral edema, Relationship to EP-100: Unrelated
[1]; dosing 1.7 mg/m^2 qw
  SAE Pain, No. of patients (%): 1 (2.7) No. of patients (%)
  SAE Pain, Outcome: Ongoing
  SAE Pain, Relationship to EP-100: Unrelated
[1]; dosing 11.7 mg/m^2 biw
  SAE Chills, No. of patients (%): 1 (2.7) No. of patients (%)
  SAE Chills, Outcome: Resolved
  SAE Chills, Relationship to EP-100: Unrelated
  SAE Hydronephrosis, No. of patients (%): 1 (2.7) No. of patients (%)
  SAE Hydronephrosis, Outcome: Resolved
  SAE Hydronephrosis, Relationship to EP-100: Unrelated
[1]; dosing 17.5 mg/m^2 biw
  SAE Febrile neutropenia, No. of patients (%): 1 (2.7) No. of patients (%)
  SAE Febrile neutropenia, Outcome: Resolved
  SAE Febrile neutropenia, Relationship to EP-100: Unrelated
[1]; dosing 26 mg/m^2 biw
  SAE Ascites, No. of patients (%): 1 (2.7) No. of patients (%)
  SAE Ascites, Outcome: Resolved with sequelae
  SAE Ascites, Relationship to EP-100: Unlikely related
  SAE Fatigue, No. of patients (%): 1 (2.7) No. of patients (%)
  SAE Fatigue, Outcome: Resolved
  SAE Fatigue, Relationship to EP-100: Unrelated
[1]; dosing 40 mg/m^2 biw
  SAE Facial paresis, No. of patients (%): 1 (2.7) No. of patients (%)
  SAE Facial paresis, Outcome: Ongoing
  SAE Facial paresis, Relationship to EP-100: Unrelated
[1]; dosing 0.6, 0.9 mg/m^2 qw
  SAE Gastrointestinal obstruction, No. of patients (%): 2 (5.4) No. of patients (%)
  SAE Gastrointestinal obstruction, Outcome: Resolved with sequelae
  SAE Gastrointestinal obstruction, Relationship to EP-100: Unrelated
[1]; dosing 11.7, 26 mg/m^2 biw
  SAE Pleural effusion, No. of patients (%): 2 (5.4) No. of patients (%)
  SAE Pleural effusion, Outcome: Resolved
  SAE Pleural effusion, Relationship to EP-100: Unrelated
[1]; highest dose evaluated 40 mg/m^2 twice weekly, IV infusion, 3 of 4 weeks per 28 day cycle
  maximum-tolerated dose (MTD): not reached
[1]; in vivo
  onset of IRDRs after start of the drug infusion: ≤ 15 min
[1]; n = 4 patients of 37
  infusion site hypersensitivity, patients: 10.8%
[1]; one patient of 37
  pain, patients: 2.7%
[1]; [4]
  AP (alkaline phosphatase), Grade 1/2: 1 (2.7) No. of patients (%)
  AP (alkaline phosphatase), Grade 3/4: 0 No. of patients (%)
  AST/ALT, Grade 1/2: 1 (2.7) No. of patients (%)
  AST/ALT, Grade 3/4: 0 No. of patients (%)
  Diarrhea, Grade 1/2: 1 (2.7) No. of patients (%)
  Diarrhea, Grade 3/4: 0 No. of patients (%)
  Fatigue, Grade 1/2: 4 (10.8) No. of patients (%)
  Fatigue, Grade 3/4: 0 No. of patients (%)
  Gastroesophageal reflux, Grade 1/2: 1 (2.7) No. of patients (%)
  Gastroesophageal reflux, Grade 3/4: 0 No. of patients (%)
  Hemoglobin, Grade 1/2: 0 No. of patients (%)
  Hemoglobin, Grade 3/4: 0 No. of patients (%)
  Infusion-related dermatologic reactions, Grade 1/2: 10 (27) No. of patients (%)
  Infusion-related dermatologic reactions, Grade 3/4: 0 No. of patients (%)
  Neutrophils, Grade 1/2: 0 No. of patients (%)
  Neutrophils, Grade 3/4: 0 No. of patients (%)
  Platelets, Grade 1/2: 0 No. of patients (%)
  Platelets, Grade 3/4: 0 No. of patients (%)
  Total bilirubin, Grade 1/2: 0 No. of patients (%)
  Total bilirubin, Grade 3/4: 0 No. of patients (%)
  Vomiting, Grade 1/2: 1 (2.7) No. of patients (%)
  Vomiting, Grade 3/4: 0 No. of patients (%)
[1]; treatment-emergent, 37 patients
  number of SAE recorded: Fourteen
[1]; two patients of 37
  decreased appetite, patients: 5.4%
[1]; typically
  time to disappearance of all IRDR symptoms after cessation of the infusion: ≤ 30 min
[2]; one breast cancer patient, dose level 7.8 mg/m^2, FSH 127–15 U/L
  reduction from baseline FSH: 88%
[2]; one breast cancer patient, dose level 7.8 mg/m^2, LH 24–1 U/L
  LH reduction: 96%
[2]; patients
  effect on other pituitary hormones (ACTH and TSH): not affected
[2]; second breast cancer patient, 11.7 mg/m^2, FSH 21–4 U/L
  FSH decrease: 81%
[2]; third breast cancer patient, 26 mg/m^2, FSH 27–4 U/L
  FSH decrease: 85%
[2]; third breast cancer patient, 26 mg/m^2, LH 27–1.3 U/L
  LH decrease: 95%
[2]; three patients of 37, dose levels 11.7 and 26 mg/m^2, all breast cancer
  patients with sustained decreases in LH and FSH: 8%
[3]
  in vivo activity: decreased CA-125 levels and tumor regression
